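Interpolation was linear, between the two tested concentrations surrounding the appropriate level; five concentrations were tested over 48 hours in 96-well plates. GI50 = concentration required for 50% inhibition of growth.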 Active and inactive are the calls of the source. Cut-off read from the data, not from the text of the source: active = GI50 up to about 1.1 µM and inactive = higher.
Experiments:
Experiment in all cases: NCI tumour cell line growth inhibition, 48 h
[1] = test system: 786-0
[2] = test system: A498
[3] = test system: A549
[4] = test system: ACHN
[5] = test system: BT-549
[6] = test system: CAKI-1
[7] = test system: CCRF-CEM
[8] = test system: COLO 205
[9] = test system: DU-145
[10] = test system: HCC 2998
[11] = test system: HCT-116
[12] = test system: HCT-15
[13] = test system: HL-60
[14] = test system: HOP-92
[15] = test system: Hs-578T
[16] = test system: K562
[17] = test system: KM12
[18] = test system: LOX IMVI
[19] = test system: M14
[20] = test system: MCF7
[21] = test system: MDA-MB-231
[22] = test system: MDA-MB-435
[23] = test system: MDA-N
[24] = test system: MOLT-4
[25] = test system: NCI-H23
[26] = test system: NCI-H460
[27] = test system: OVCAR-3
[28] = test system: OVCAR-4
[29] = test system: OVCAR-5
[30] = test system: PC-3
[31] = test system: RPMI-8226
[32] = test system: RXF 393
[33] = test system: SF-268
[34] = test system: SF-295
[35] = test system: SF-539
[36] = test system: SK-MEL-28
[37] = test system: SK-MEL-2
[38] = test system: SK-MEL-5
[39] = test system: SK-OV-3
[40] = test system: SN12C
[41] = test system: SNB-19
[42] = test system: SNB-75
[43] = test system: SR
[44] = test system: SW-620
[45] = test system: T47D
[46] = test system: TK-10
[47] = test system: U-251
[48] = test system: UACC-257
[49] = test system: UACC-62
[50] = test system: UO-31
[51] = test system: HT-29
[52] = test system: IGROV-1
[53] = test system: Malme-3M
[54] = test system: NCI-H226
[55] = test system: NCI-H522
[56] = test system: OVCAR-8

## Cc1c(C)c(C)c(-n2c(=O)n(C)c(=O)n2C(C)(C)C)c(C)c1C
[1]
  GI50: > 100 µM (inactive)
[2]
  GI50: > 100 µM (inactive)
[3]
  GI50: > 100 µM (inactive)
[4]
  GI50: > 100 µM (inactive)
[5]
  GI50: > 100 µM (inactive)
[6]
  GI50: > 100 µM (inactive)
[7]
  GI50: 38 µM (inactive)
[8]
  GI50: > 100 µM (inactive)
[9]
  GI50: > 100 µM (inactive)
[10]
  GI50: > 100 µM (inactive)
[11]
  GI50: > 100 µM (inactive)
[12]
  GI50: > 100 µM
[13]
  GI50: 40.3 µM (inactive)
[14]
  GI50: > 100 µM (inactive)
[15]
  GI50: > 100 µM (inactive)
[16]
  GI50: 81.1 µM (inactive)
[17]
  GI50: > 100 µM (inactive)
[18]
  GI50: > 100 µM (inactive)
[19]
  GI50: > 100 µM (inactive)
[20]
  GI50: > 100 µM (inactive)
[21]
  GI50: > 100 µM (inactive)
[22]
  GI50: > 100 µM (inactive)
[23]
  GI50: > 100 µM (inactive)
[24]
  GI50: > 100 µM (inactive)
[25]
  GI50: > 100 µM (inactive)
[26]
  GI50: > 100 µM (inactive)
[27]
  GI50: > 100 µM (inactive)
[28]
  GI50: > 100 µM (inactive)
[29]
  GI50: > 100 µM (inactive)
[30]
  GI50: > 100 µM (inactive)
[31]
  GI50: 89.5 µM (inactive)
[32]
  GI50: > 100 µM (inactive)
[33]
  GI50: > 100 µM (inactive)
[34]
  GI50: > 100 µM (inactive)
[35]
  GI50: > 100 µM (inactive)
[36]
  GI50: > 100 µM (inactive)
[37]
  GI50: > 100 µM (inactive)
[38]
  GI50: > 100 µM (inactive)
[39]
  GI50: > 100 µM (inactive)
[40]
  GI50: > 100 µM (inactive)
[41]
  GI50: > 100 µM (inactive)
[42]
  GI50: > 100 µM (inactive)
[43]
  GI50: 85.9 µM (inactive)
[44]
  GI50: > 100 µM (inactive)
[45]
  GI50: > 100 µM (inactive)
[46]
  GI50: > 100 µM (inactive)
[47]
  GI50: > 100 µM (inactive)
[48]
  GI50: > 100 µM (inactive)
[49]
  GI50: > 100 µM (inactive)
[50]
  GI50: > 100 µM (inactive)

## CN1CCN(C(=S)N(C)C(=O)c2cccs2)CC1
[1]
  GI50: > 100 µM (inactive)
[3]
  GI50: > 100 µM (inactive)
[4]
  GI50: > 100 µM (inactive)
[5]
  GI50: > 100 µM (inactive)
[7]
  GI50: > 100 µM (inactive)
[8]
  GI50: > 100 µM (inactive)
[9]
  GI50: > 100 µM (inactive)
[10]
  GI50: > 100 µM (inactive)
[12]
  GI50: > 100 µM
[14]
  GI50: > 100 µM (inactive)
[51]
  GI50: > 100 µM (inactive)
[15]
  GI50: > 100 µM (inactive)
[52]
  GI50: > 100 µM (inactive)
[16]
  GI50: > 100 µM (inactive)
[17]
  GI50: > 100 µM (inactive)
[18]
  GI50: > 100 µM (inactive)
[19]
  GI50: > 100 µM (inactive)
[20]
  GI50: > 100 µM (inactive)
[21]
  GI50: > 100 µM (inactive)
[22]
  GI50: > 100 µM (inactive)
[23]
  GI50: > 100 µM (inactive)
[24]
  GI50: > 100 µM (inactive)
[53]
  GI50: > 100 µM (inactive)
[54]
  GI50: > 100 µM (inactive)
[25]
  GI50: > 100 µM (inactive)
[26]
  GI50: > 100 µM (inactive)
[55]
  GI50: > 100 µM (inactive)
[27]
  GI50: > 100 µM (inactive)
[28]
  GI50: > 100 µM (inactive)
[29]
  GI50: > 100 µM (inactive)
[56]
  GI50: > 100 µM (inactive)
[31]
  GI50: > 100 µM (inactive)
[32]
  GI50: > 100 µM (inactive)
[34]
  GI50: > 100 µM (inactive)
[37]
  GI50: > 100 µM (inactive)
[38]
  GI50: > 100 µM (inactive)
[40]
  GI50: > 100 µM (inactive)
[41]
  GI50: > 100 µM (inactive)
[43]
  GI50: > 100 µM (inactive)
[44]
  GI50: > 100 µM (inactive)
[45]
  GI50: > 100 µM (inactive)
[46]
  GI50: > 100 µM (inactive)
[47]
  GI50: > 100 µM (inactive)
[48]
  GI50: > 100 µM (inactive)
[49]
  GI50: > 100 µM (inactive)
[50]
  GI50: > 100 µM (inactive)

— ChEMBL document CHEMBL1201862, “PubChem BioAssay data set” (2004)
